Data taken from patent publication US20260347399A1, “BRAIN PENETRATING PEPTIDES AND METHODS OF USE” (priority 2022, published 2026).

Assays:
[1] = tested on: mouse brain; assay: In vivo phage display with CX4CYX library; settings: for R1 reads: round 1; for R3 reads: round 3; for R3 > R1 (ratio of sequencing reads between round 3 and round 1): round 3 / round 1
Description: In vivo phage display with CX4CYX library was performed in three selection rounds. Phage library was injected intravenously to Balb/c mice and allowed to circulate for one hour. After circulation, the animals were anesthetized and perfused intracardially with acid and detergent buffers. Brain and control organs were collected and homogenized in 1% NP40-LB. Bound phages were rescued by amplification in E. coli and their genomic DNA was sequenced by Ion Torrent next generation DNA sequencing system.
A novel phage library CX4CYX was constructed based on the alanine-leucine screen to find new brain homing peptides). This knowledge directed us to construct a novel phage library CX4CYX (X—any amino acid), where Cys1, Cys6 and Tyr7 remained in their intact positions, and the four amino acid variable-domain laid between the cysteines, and one amino acid variability after Tyr7. Three rounds of phage bio-panning was performed to allow enrichment of peptides in the brain. Again acid and detergent buffers were used for perfusion to remove non-specifically bound phages from the brain after systemic administration of phage library (round 1) and recovered brain phage pools (round 2 and 3). HTS reads from round 1 to round 3 indicated decent enrichment of in-frame peptides in the brain (Table 6).

[2] = tested on: mouse brain; assay: In vivo T7 phage display (biopanning), high throughput sequencing of brain phage; settings: for reads associated with each sequence (Ion torrent sequencing): Round 5 of biopanning
Description: The in vivo phage screening in male Balb/C mice was performed as described in (Põšnograjeva et al., 2022) with some alterations. To reduce the background of unspecific phages in the brain, 4.5×10^10 pfu of UV-inactivated control insertless T7 phage was injected i.p. 30 min later, CX7C naïve T7 phage library or the phage pool recovered from the brain in the previous round of biopanning was injected i.v. and allowed to circulate for 30 min. The mice were anesthetized and perfused with PBS intracardially. The brain was removed, homogenized in LB-NP40 (1%) and the phages in the lysate were rescued by amplification in semi-solid media in E. coli strain BLT5403. Peptide-encoding portion of the phage genome was sequenced using Ion Torrent high throughput sequencing (HTS). 8 mice were used in the first round of biopanning (R1) to prevent creating a narrow bottleneck of selection in the first round of biopanning. 2 mice were used for all subsequent rounds (R2 . . . . R5). R5 was repeated with the additional step of isolating brain CD31+ cells from CD31− cells by magnetic-activated cell sorting. The mouse brains were dissociated using Dounce tissue grinder and Adult Brain Dissociation Kit (#130-107-677) and CD31+ cells were isolated from all the other brain cells using CD31 MicroBeads (#130-097-418) following the manufacturer's protocol for isolation and cultivation of endothelial cells from adult mouse brain. The cells were lysed in LB-NP40 (1%) and the samples were further processed following the same steps with samples of whole brain.
To identify peptides that accumulate in mouse brain, cross the blood-brain barrier and reach the brain parenchyma cells, in vivo T7 phage display was used. For round 1 of biopanning, naïve CX7C T7 peptide-phage library was injected into mice i.v. The phages accumulated in brain were rescued to be used as input in a subsequent round of biopanning. A consistent increase in the % of injected phage accumulating in the brain tissue through rounds 1 . . . 5 of biopanning was observed (FIG. 1A; To assess the % of injected phage that accumulated in the brain throughout the five rounds of biopanning (R1-R5), Peptide-phages were injected i.v. and following 30 min circulation mice were perfused with PBS. The phages rescued from the brain were reamplified and injected for a subsequent round of biopanning). The 5th round of bio-panning was then repeated with an additional step of isolating CD31+ brain endothelial cells from CD31− brain cells to detect peptides that not only accumulate in the brain, but also penetrate the endothelial cell layer lining the brain blood vessels (FIG. 1B; The total amount of phage rescued from mouse brain CD31+ and CD31− cell fractions after R5 with the additional step of isolating brain endothelial (CD31+) cells from all the other brain cells (parenchyma cells; CD31−)).
A complete listing of peptides that were identified from Ion Torrent high throughput sequencing from bio-panning Round 5 is set forth in Table 1B.

[3] = mouse 325, total reads in sample 135061
[4] = mouse 326, total reads in sample 218048

CACPLCY [CAGPLCY]
R1 reads [1]: 3 reads
R3 reads [1]: 1232 reads
R3 > R1 (ratio of sequencing reads between round 3 and round 1) [1]: 411

CAGSMCY
R1 reads [1]: 14 reads
R3 reads [1]: 9077 reads
R3 > R1 (ratio of sequencing reads between round 3 and round 1) [1]: 648

CEGALCY
R1 reads [1]: 17 reads
R3 reads [1]: 39863 reads
R3 > R1 (ratio of sequencing reads between round 3 and round 1) [1]: 2345

CEGSLCY
R1 reads [1]: 3 reads
R3 reads [1]: 2833 reads
R3 > R1 (ratio of sequencing reads between round 3 and round 1) [1]: 944

CKGSNCY
R1 reads [1]: 4 reads
R3 reads [1]: 2037 reads
R3 > R1 (ratio of sequencing reads between round 3 and round 1) [1]: 509

CMGDLCY
R1 reads [1]: 3 reads
R3 reads [1]: 837 reads
R3 > R1 (ratio of sequencing reads between round 3 and round 1) [1]: 279

CQGALCY
R1 reads [1]: 27 reads
R3 reads [1]: 8612 reads
R3 > R1 (ratio of sequencing reads between round 3 and round 1) [1]: 319

CQGSNCY
R1 reads [1]: 4 reads
R3 reads [1]: 1202 reads
R3 > R1 (ratio of sequencing reads between round 3 and round 1) [1]: 301

CTGSLCY
R1 reads [1]: 64 reads
R3 reads [1]: 43464 reads
R3 > R1 (ratio of sequencing reads between round 3 and round 1) [1]: 679

CTGSMCY
R1 reads [1]: 3 reads
R3 reads [1]: 841 reads
R3 > R1 (ratio of sequencing reads between round 3 and round 1) [1]: 280

CVCANCY [CVGANCY]
R1 reads [1]: 24 reads
R3 reads [1]: 7359 reads
R3 > R1 (ratio of sequencing reads between round 3 and round 1) [1]: 307

CVGQLCY
R1 reads [1]: 12 reads
R3 reads [1]: 5355 reads
R3 > R1 (ratio of sequencing reads between round 3 and round 1) [1]: 446

CVGTLCY
R1 reads [1]: 21 reads
R3 reads [1]: 11631 reads
R3 > R1 (ratio of sequencing reads between round 3 and round 1) [1]: 554

IMLGDPILASRRVISRAKL
reads associated with each sequence (Ion torrent sequencing) [2, 3]: 68 reads
reads associated with each sequence (Ion torrent sequencing) [2, 4]: 116 reads

MIGDANSSS
reads associated with each sequence (Ion torrent sequencing) [2, 3]: 2370 reads
reads associated with each sequence (Ion torrent sequencing) [2, 4]: 2197 reads

MIGDPILAGRRIVSRAKLAAALE
reads associated with each sequence (Ion torrent sequencing) [2, 3]: 315 reads
reads associated with each sequence (Ion torrent sequencing) [2, 4]: 480 reads

MIGDPILASRRVISR
reads associated with each sequence (Ion torrent sequencing) [2, 3]: 77 reads
reads associated with each sequence (Ion torrent sequencing) [2, 4]: 76 reads

MIGDPILASRRVISRAKLAA
reads associated with each sequence (Ion torrent sequencing) [2, 3]: 254 reads
reads associated with each sequence (Ion torrent sequencing) [2, 4]: 286 reads

MIGDPNFAIRAVISRAKLAAALE
reads associated with each sequence (Ion torrent sequencing) [2, 3]: 543 reads
reads associated with each sequence (Ion torrent sequencing) [2, 4]: 825 reads

MLGDPILASERVISRAKLAAASS
reads associated with each sequence (Ion torrent sequencing) [2, 3]: 47 reads
reads associated with each sequence (Ion torrent sequencing) [2, 4]: 169 reads

MLGDPILASRAVISRAKLAAA
reads associated with each sequence (Ion torrent sequencing) [2, 3]: 350 reads
reads associated with each sequence (Ion torrent sequencing) [2, 4]: 399 reads

MLGDPILASRAVISRAKLAAALS
reads associated with each sequence (Ion torrent sequencing) [2, 3]: 54 reads
reads associated with each sequence (Ion torrent sequencing) [2, 4]: 194 reads

MLGDPILASRAVISRAKLAAHSS
reads associated with each sequence (Ion torrent sequencing) [2, 3]: 84 reads
reads associated with each sequence (Ion torrent sequencing) [2, 4]: 142 reads

MLGDPILASRRVISRAK
reads associated with each sequence (Ion torrent sequencing) [2, 3]: 67 reads
reads associated with each sequence (Ion torrent sequencing) [2, 4]: 100 reads

MLGDPILASRRVISRAKLA
reads associated with each sequence (Ion torrent sequencing) [2, 3]: 150 reads
reads associated with each sequence (Ion torrent sequencing) [2, 4]: 172 reads

MLGDPILASRRVISRAKLAAAFE
reads associated with each sequence (Ion torrent sequencing) [2, 3]: 46 reads
reads associated with each sequence (Ion torrent sequencing) [2, 4]: 269 reads

MLGDPILASRRVISRAKLAAAL
reads associated with each sequence (Ion torrent sequencing) [2, 3]: 1495 reads
reads associated with each sequence (Ion torrent sequencing) [2, 4]: 2334 reads

MLGDPILASRRVISRAKLAAALD
reads associated with each sequence (Ion torrent sequencing) [2, 3]: 34 reads
reads associated with each sequence (Ion torrent sequencing) [2, 4]: 119 reads

MLGDPILASRRVISRAKLAAALE [Pep1]
reads associated with each sequence (Ion torrent sequencing) [2, 3]: 80229 reads
reads associated with each sequence (Ion torrent sequencing) [2, 4]: 132268 reads
representation of peptide sequence in brain ([2]; whole brain after round 5, CD31+ and CD31- brain cell fractions): most represented peptide sequence in the whole brain after round 5 of bio-panning as well as in CD31+ and CD31− brain cell fractions

MLGDPILASRRVISRAKLAAALG
reads associated with each sequence (Ion torrent sequencing) [2, 3]: 33 reads
reads associated with each sequence (Ion torrent sequencing) [2, 4]: 108 reads

MLGDPILASRRVISRAKLAATLE
reads associated with each sequence (Ion torrent sequencing) [2, 3]: 39 reads
reads associated with each sequence (Ion torrent sequencing) [2, 4]: 143 reads

MLGDPILASRRVISRAKLAAVLE
reads associated with each sequence (Ion torrent sequencing) [2, 3]: 51 reads
reads associated with each sequence (Ion torrent sequencing) [2, 4]: 292 reads

MLGDPILASRRVISRAKLADALE
reads associated with each sequence (Ion torrent sequencing) [2, 3]: 142 reads
reads associated with each sequence (Ion torrent sequencing) [2, 4]: 359 reads

MLGDPILASRRVISRAKLEAALE
reads associated with each sequence (Ion torrent sequencing) [2, 3]: 129 reads
reads associated with each sequence (Ion torrent sequencing) [2, 4]: 251 reads

MLGDPNIVAKLAAALE
reads associated with each sequence (Ion torrent sequencing) [2, 3]: 271 reads
reads associated with each sequence (Ion torrent sequencing) [2, 4]: 368 reads

MLGDPNLARRRVISRAKLAAAL
reads associated with each sequence (Ion torrent sequencing) [2, 3]: 89 reads
reads associated with each sequence (Ion torrent sequencing) [2, 4]: 188 reads

MLGDPNLARRRVISRAKLAAALE
reads associated with each sequence (Ion torrent sequencing) [2, 3]: 4716 reads
reads associated with each sequence (Ion torrent sequencing) [2, 4]: 8755 reads

MLGDPNS
reads associated with each sequence (Ion torrent sequencing) [2, 3]: 57 reads
reads associated with each sequence (Ion torrent sequencing) [2, 4]: 84 reads

MLGDPNSC
reads associated with each sequence (Ion torrent sequencing) [2, 3]: 84 reads
reads associated with each sequence (Ion torrent sequencing) [2, 4]: 216 reads

MLGDPNSCTEGTRVTC
reads associated with each sequence (Ion torrent sequencing) [2, 3]: 1533 reads
reads associated with each sequence (Ion torrent sequencing) [2, 4]: 2339 reads

MLGDPNSSSVDKLAAALE
reads associated with each sequence (Ion torrent sequencing) [2, 3]: 674 reads
reads associated with each sequence (Ion torrent sequencing) [2, 4]: 588 reads
